Assay results from patent publication US20040142379A1, “Affinity fishing for ligands and proteins receptors” (Carlsberg Research Laboratory, priority 2003, published 2004).
“Also recorded” adds a separate entry of the source. No end group written: not given here.

How the values were obtained:
[1] = system: E. coli membrane proteins; test: Solid phase screening of Library 2 with E. coli membrane proteins; on-bead tryptic digest and protein identification; type: binding, Escherichia coli DH 5α-136; conditions: proteins bound to resin-bound Library 2 ligand; LA low abundance, M inner or outer membrane, P periplasmic space
Experimental: A 400 mL culture of Escherichia coli DH 5α-136 (Carlsberg Research Center Collection) was prepared according to the procedures described in Hanahan, 1985, In: DNA Cloning, Vol 1, Glover, D., ed., IRL Press Ltd, pp. 109-135. Cells were grown from innocula in LB media at 37° C. for 5 to 6 hours and harvested in the latter log phase at an optical density of 0.8 (600 nm) by centrifugation (10,000 rpm for 10 minutes at 4° C.). The media containing extracellular protein was retained and the pellet washed once with PBS, pH 7.6 (cellular weight=2.22 g).
Isolation of E. coli membrane proteins was achieved through modification of published literature procedures: Auer, et al., 2001, Biochemistry, 40:6628-6635, and Molloy, et al., 2000, Eur. J. Biochem. 267:2871-2881. After incubation of E. coli cells for 2 days, washed cells were scraped from plates and centrifuged as described above for Example 10. The cell pellet (approximately 1 g) was suspended in 50 mM Tris HCl, pH 7.5 and pressed (2×) in a French Press at 1500 Psi. The resulting suspension was centrifuged at 2500×g for 10 minutes. The ice cold supernatant was diluted with 2.5 ml of ice-cold 0.1 M sodium carbonate buffer 11 and the solution stirred on ice for 1 hour. Ultracentrifugation was then carried out at 115, 000×g for 1 to 1.5 hours at 4° C., yielding Pellet 1 and Supernatant 1. The membrane pellet 1 was resuspended in 50 mM Tris HCl, pH 7.5 and the pellet was recollected after centrifugation for an additional 20 minutes at 115,000×g, yielding Pellet 2 and supernatant 2. Pellet 2 was solubilized in 50 mM Tris HCl, pH 7.5 containing 10 mM imidazole, 0.5 mM PMSF, 20% glycerol, and 1% Dodecyl Maltoside (DDM) or 33 mM Octyl Glucoside (OG) for 30 minutes at 4° C. The suspension was then centrifuged for 10,000 g for 30 minutes. The pellet and supernatant obtained were labeled Pellet 3 and supernatant 3.
Protein content was determined by checking the absorbance of the protein at 280 nm. The protein concentration in the DDM sample was 0.93 mg/mL, while in the OG sample 0.07 mg/mL protein was obtained.
The protein was labeled with amino reactive succinylanthranilate dye (blue) DDM (0.49 mg dye) and OG (0.03 mg dye) according to the same protocol used in the extracellular labeling described above for Example 12. The labeling stopping reaction (hydroxylamine hydrochloride addition) was not used in this case, to avoid dilution of the protein. The mixture was dialyzed overnight against 10 mM PBS buffer, pH 6.8 containing 0.01 mM ZnCl2, 0.01 mM CaCl2, 0.01 mM MnCl2, and 0.01 mM MnSO4, against a three time buffer change.
The ligand library was then washed, and E. coli labeled membrane protein, prepared as described above for Example 13, was added (0.1 ml). The ligand library and protein mixture was incubated overnight at room temperature.
A typical analysis employed 100-300 laser shots.
Beads containing 40 different specific ligands that bind E. coli protein, the binding ligands isolated by the process described for Example 16 and identified as described for Example 19, were placed into 40 wells of a Multiwell filter plate (Multiscreen DV plates, Millipore). Control beads containing PEGA4000 resin plus the spacer and linker with no ligand compound were used. The binding of unlabeled E. coli proteins was carried out in duplicate. The ligand beads were washed with Millipore water for 3×5 minutes and then with 10 mM PBS buffer (as described for Example 15) for 3×5 minutes under vacuum. Unlabeled E. coli protein, produced as described for Example 13, (400 μg) was added to each well and incubated at room temperature overnight. The next day, the unbound protein solution from each well was removed under suction and the beads were washed with Millipore water and buffer respectively for 3×5 minutes under vacuum.
Protein was cleared from beads containing protein-ligand binding “positive hits” isolated as described for Examples 21 (myocyte proteins) and 22 (E. coli proteins). […]

[2] = system: Normal Myocytes (basal) protein mixture; test: Solid phase screening of Library 1 with labeled myocyte proteins; on-bead affinity isolation and peptide mass fingerprinting of bound protein (basal); type: binding, neonatal Wistar rats; conditions: proteins bound to resin-bound Library 1 ligand, primarily present in basal cells; LA low abundance, M transmembrane or partially embedded, MA membrane associated; parentheses = possible complexes
Experimental: Myocytes were prepared from 1 to 5 day old neonatal Wistar rats (University of Copenhagen) according to literature procedure described in Busk et al., 2002, Cardiovasc. Res., 56: 64-75 and plated into eight P10 culture plates at 6 million cells/plate. Cells were grown at 37° C. and 5% CO2 humidity in serum free Modified Eagle Media (MEM). After 2 days, the adherent cells were washed at room temperature with serum free MEM (2×) and fresh MEM was added. To four of the plates, 10 μM phenylephrine (PE) was also added. Cells were grown for two more days and then harvested as described below.
Protein was extracted from myocytes prepared as described above for Example 9, using a new procedure modified from existing protocols, primarily: Arnott, et al., 1998, Anal. Biochem. 258: 1-18. The media was removed from plates and adhered cells were treated for 10 minutes with ice cold phosphate buffer (0.25 mL, 10 mM, pH 7.5, augmented with 0.15 M NaCl 60 mM Benzamidine HCl, 5 mM EDTA, 10 μg/mL E-64, 10 μg/mL Leupeptin, 10 μg/mL Pepstatin A, and 1 mM PMSF). The cells were scraped off the plates and then lysed (on ice) in a sonicator (2×) using 10 seconds off/10 seconds on cycles.
The resulting suspension was augmented with CHAPS, DTT, and urea to a final concentration of CHAPS (1% w/v), DTT (5 mM), and urea (8 M). After 10-15 minutes on ice, the solution was centrifuged for 10 minutes at 15,000 rpm at 4° C. The supernatant was removed and protein content quantified using the NanoOrange Protein test (Molecular Probes, Eugene, Oreg.): Total protein recovered: 70.5 μg for PE-treated cells and 60 μg for basal cells.
Fluorescent dye Oregon Green 514 (OR) (Molecular Probes) was used to label the healthy/basal cells while Rhodamine Red (RR) (Molecular Probes) was used to label the PE-treated cells. The labeling procedures were carried out according to the manufacturer's protocol. The protein solutions (0.25 mL, 50.4 μg for PE cells and 0.25 mL, 42.8 μg for basal cells) were dialyzed against a solution of 10 mM phosphate buffer, 0.15 M NaCl, pH 7.5 and then 1 M NaHCO3 (0.025 mL) added to a final pH of 8.5. 10 μL of dye in dry DMF (10 mg/mL) was added and the sample stirred at room temperature for 2 hours. The protein solution was dialyzed extensively against 10 mM phosphate buffer, 0.15 M NaCl, pH 7.5, to remove excess dye.
Ligand library 1 (200 mg), prepared as described for Example 5, was transferred to a syringe fitted with a stop-valve and the ligand-beads were washed for 10 minutes (3×) with 10 mM phosphate buffer, pH 6.8, supplemented with 0.15 M NaCl, 1 mM Ca^2+, 1 mM Zn^2+, 1 mM Mn^2+, 1 mM Cu^2+, and 1 mM Mg^2+ (3 mL). The ligand-beads were treated with a 1% BSA solution for 30 minutes, then washed with buffer (1×). A mixture of labeled myocyte proteins, including both PE-induced protein (138 μL, 40 μg) and basal protein (167 μL, 40 μg) obtained as described above for Example 11, was prepared in 1.2 mL buffer, and added to the ligand library in the syringe. The proteins and ligand library were incubated at room temperature for 16 hours. The library was then washed with buffer for 5 minutes then with water for 3×5 minutes. The library was examined under a fluorescence microscope and brightly fluorescent red, green, and yellow beads (yellow indicative of both dyes red and green binding; the majority of the beads) were present, as well as unlabelled beads. The fluorescent beads were parted and retained for analysis.
The fluorescent ligand library beads containing bound myocyte protein obtained as described in Example 15, were sorted using a COPAS (250) NF Bead Sorter (Union Biometrica, Somerville, Mass.). Beads emitting fluorescence of only one color contain proteins from one physical state, proteins expressed only in the PE-induced hypertrophic state (red) or proteins expressed only in the basal state (green).

[3] = system: six protein mixture: Con A, P. sativum lectin, L. culinaris lectin, W. floribunda lectin, Glyceraldehyde 6-phosphate, and bovine serum albumin (BSA); conditions: proteins eluted from ligand on PEGA6000 resin with 0.5 M mannose and/or N-acetylglucosamine
Experimental: The ligand-resin was washed with 10 mM PBS buffer, pH 6.8 containing 1 mM CaCl2 and 1 mM MnCl2. A mixture of unlabelled proteins, Glycerol-3-phosphate: BSA: Wisteria floribunda: Lens culinaris: Pisatum sativum in a […] weight ratio was dissolved in 10 mM PBS buffer, pH 6.8 containing 1 mM CaCl2 and 1 mM MnCl2 The protein mix (3.5 mL, ca. 1.2 mg protein) was applied to each ligand column and allowed to bind overnight. The column was washed with the same buffer until no more protein was eluted (Abs 280 nm). Bound protein was eluted from the column using 0.5M mannose in 10 mM PBS buffer, pH 8.0 containing CaCl2 and 1 mM MnCl2 (buffer filtered to remove CaOH2 formed) for glycopeptides containing only mannose, 0.5 M N-acetylglucosamine in 10 […] mM PBS buffer, pH 8.0 containing CaCl2 and 1 mM MnCl2 (buffer filtered to remove CaOH2 formed) for glycopeptides containing only GlcNAc, and both buffers for glycopeptides containing both mannose and GlcNAc, or for unglycosylated peptides. Samples were obtained in about 700 μL volume and frozen for later protein identification.

Substance | Identified Protein(s) [1] | further results
T(Sa)-H-W-V-V | Pyruvoyl dependent aspartate decarboxylase, colicin E2, Histidine kinase (M) | 
T(Sa)-F-V-W-H | NADH dehydrogenase (M), protein involved in flagellar biosynthesis and motor; also recorded: switching component (M); also recorded: Lysine-arginine-ornithine-binding protein (P), ATP-binding component of glycine-; also recorded: betaine-proline transport protein (P) | 
Phe-Ppy-Acc-Ala-Ppy-Hpy |  | Identified Protein(s) [2]: Hypothetical proteins; Troponin T; (Phospholipase C (MA);; also recorded: Phosphatidylcholine sterol acyl transferase)
Pip-Pal-Pal-Phe-Pya-Pip |  | Identified Protein(s) [2]: Myosin light chain kinase (LA, MA); (Tyrosine phosphatase (LA, M);; also recorded: ATP Synthase component (M)) Gluthathione S-transferase; Cytochrome; also recorded: P450 (M); Ribosomal proteins (60s); SPTR (M))
T(Sa)-L-Y-I-F | Colicin, hypothetical membrane protein (M) outer membrane lipoprotein (M),; also recorded: arylsulfatase | 
T(Sa)-H-W-H-L | Chorismate mutase, xanthine dehydrogenase, carbamoyl phosphate synthetase | 
T(Sa)-F-N-H-S | Phosphate acetyl transferase, acid shock protein, molybdopterin converting factor; also recorded: subunit | 
T(Sa)-F-G-I-W | Histidine synthetase, aspartate carbamoyl transferase, protein involved in permease; also recorded: transport system (M) | 
T(Sa)-F-G-I-M | Transposase, transcriptional regulator (LA), GroEL, protein involved in the taurine; also recorded: transport system (M) | 
T(Sa)-H-W-H-I | Mannose-1-phosphate guanyl transferase, isopropyl malate dehydrogenase (M) | 
GPKKYH |  | Identified Protein(s) [3]: Con A, P. sativum lectin,; also recorded: L. culinaris lectin
ManN-ManS-ManN-Trp-Ser-Trp |  | Identified Protein(s) [3]: Con A, P. sativum lectin,; also recorded: L. culinaris lectin
T(Sa)-I-Y-L-F | Membrane bound ATP synthetase (M), ATP hydrolase | 
T(Sa)-H-L-G-Y | Protein involved in lipopolysaccharide biosynthesis (M), phosphomannose isomerase | 
ManS-Gly-ManS-Asp-Asn-Ala |  | Identified Protein(s) [3]: Con A, P. sativum lectin
T(Sa)-F-A-L-V | Chaperone DnaK, putative hydrolase, transposase | 
T(Sa)-Y-S-M-P | Biotin synthetase, UDP-glucose dehydrogenase, tyrosine protein kinase (LA), fatty; also recorded: acid oxidase complex proteins | 
T(Sa)-H-I-G-Y | Fimbrial subunit, outer membrane pyruvate kinase (LA, M) | 
ManS-GIy-GlcNN-Asn-ManS-Tyr |  | Identified Protein(s) [3]: Con A, P. sativum lectin,; also recorded: L. culinaris lectin
T(Sa)-W-V-N-M | Transposase, inner membrane protein for phage attachment (M) | 
T(Sa)-F-G-L-M | Hemolysin C, high affinity potassium transport system (M), quinone oxidoreductase; also recorded: (M), ferrodoxin dependent NA(D)PH oxidoreductase (M) | 
ManN-Phe-Trp-Ser-Lys-His |  | Identified Protein(s) [3]: Con A, P. sativum lectin
GlcNN-Trp-Phe-Asp-Trp-Pro |  | Identified Protein(s) [3]: Con A
GlcNN-Val-GlcNN-His-ManS-Gly |  | Identified Protein(s) [3]: Con A, P. sativum lectin
T(Sa)-M-V-N-W | ATP dependent helicase, mob C | 
T(Sa)-L-S-W-W | NAD-dependent 7-alpha-hydroxysteriod dehydrogenase, homocysteine transferase,; also recorded: nitrate reductase (P), lactate dehydrogenase, citrate synthetase | 
T(Sa)-L-Y-L-F | Fimbrial protein precursor, alkaline phosphatase (P), cytochrome related proteins (P), | 
T(Sa)-G-V-F-L | 50 S ribosomal protein, heme binding lipoprotein (M), regulator for D-glucarate, D- and glycerate and D-galactarate, glutamine tRNA synthetase | 
